Patent US5721103A, “Trienoic retinoid compounds and methods” (Ligand Pharmaceuticals Incorporated, priority 1995, dated 1998)

Assays:
[1] = system: ornithine decarboxylase (ODC); assay: Ornithine decarboxylase assay, inhibition of TPA induction of ODC; type: cell-based; conditions: esters of Compounds 9 and 10
[2] = target: T1, RARγ (Homo sapiens, UniProt P13631); assay: Co-transfection assay, RARγ agonist activity; type: cell-based
T1 construct: expressed in transfected cells; host or cells: CV-1 (African green monkey kidney)
T1 sequence (P13631 1-454): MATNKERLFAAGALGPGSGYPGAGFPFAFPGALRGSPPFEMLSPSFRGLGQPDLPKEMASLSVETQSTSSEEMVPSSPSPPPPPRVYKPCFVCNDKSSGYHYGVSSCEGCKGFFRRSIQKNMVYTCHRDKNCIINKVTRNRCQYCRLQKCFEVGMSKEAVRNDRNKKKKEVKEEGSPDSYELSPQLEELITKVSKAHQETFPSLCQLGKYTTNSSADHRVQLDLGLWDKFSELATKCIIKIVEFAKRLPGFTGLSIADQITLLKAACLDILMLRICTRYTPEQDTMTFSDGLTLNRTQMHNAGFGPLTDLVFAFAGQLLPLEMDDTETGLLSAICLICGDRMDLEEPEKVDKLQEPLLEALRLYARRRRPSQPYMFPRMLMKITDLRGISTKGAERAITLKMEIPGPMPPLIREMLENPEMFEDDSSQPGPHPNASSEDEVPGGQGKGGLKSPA

[3] = system: RARs and RXRs; assay: Co-transfection assay, RAR and RXR receptors taken together; type: cell-based
Protocol: Utilizing the "cis-trans" or "co-transfection" assay described by Evans et al., Science, 240:889-95 (May 13, 1988), the disclosure of which is herein incorporated by reference, the retinoid compounds of the present invention were tested and found to have strong, specific activity as either selective RAR agonists, selective RXR agonists, or as pan-agonist activators of both RAR and RXR receptors. This assay is described in further detail in U.S. Pat. Nos. 4,981,784 and 5,071,773, the disclosures of which are incorporated herein by reference.
In the co-transfection assay, a cloned cDNA for an IR (e.g., human RARα, RARβ, RXRγ) under the control of a constitutive promoter (e.g., the SV 40 promoter) is introduced by transfection (a procedure to induce cells to take up foreign genes) into a background cell substantially devoid of endogenous IRs. This introduced gene directs the recipient cells to make the IR protein of interest. A second gene is also introduced (co-transfected) into the same cells in conjunction with the IR gene. This second gene, comprising the cDNA for a reporter protein, such as firefly luciferase (LUC), is controlled by an appropriate hormone responsive promoter containing a hormone response element (HRE). This reporter plasmid functions as a reporter for the transcription-modulating activity of the target IR. Thus, the reporter acts as a surrogate for the products (mRNA then protein) normally expressed by a gene under control of the target receptor and its native hormone.
The co-transfection assay can detect small molecule agonists or antagonists of target IRs. Exposing the transfected cells to an agonist ligand compound increases reporter activity in the transfected cells. This activity can be conveniently measured, e.g., by increasing luciferase production, which reflects compound-dependent, IR-mediated increases in reporter transcription. […] . Increasing concentrations of a suspected antagonist will decrease the reporter signal (e.g., luciferase production). The co-transfection assay is therefore useful to detect both agonists and antagonists of specific IRs. Furthermore, it determines not only whether a compound interacts with a particular IR, but whether this interaction mimics (agonizes) or blocks (antagonizes) the effects of the native regulatory molecules on target gene expression, as well as the specificity and strength of this interaction.
To determine RAR and/or RXR agonist activity of the compounds of the present invention, the CV-1 cells were transiently transfected by calcium phosphate coprecipitation according to the procedure of Berger et al., 41 J. Steroid Biochem. Mol. Biol., 733 (1992) with the following receptor expressing plasmids: pRShRARα: Giguere et at., 330 Nature, 624 (1987); pRShRARβ and pRShRARγ, Ishikawa et al., 4 Mol. Endocrin., 837 (1990); pRShRXRα, Mangelsdorf et at., 345 Nature, 224 (1990); and pRSmRXRβ and pRSmRXRγ, Mangelsdorf et al., 6 Genes & Devel., 329 (1992), the disclosures of which are herein incorporated by reference. Each of these receptor expressing plasmids was co-transfected at a concentration of 5 ng/well, along with a basal reporter plasmid at 100 ng/well, the internal control plasmid pRS-β-Gal at 50 ng/well and filler DNA, pGEM at 45 ng/well.

[4] = system: RAR and RXR receptors; assay: Binding to the retinoid receptors taken together; conditions: RARs and RXRs; compounds 9 and 10 versus ATRA and 9-cis
[5] = target: T2, RARα (Homo sapiens, UniProt P10276); assay: Co-transfection assay, RARα agonist activity; type: cell-based; conditions: CV-1 cells, 40 hours, read-out: Potency (EC50) RARα
T2 construct: expressed in transfected cells; host or cells: CV-1 (African green monkey kidney)
T2 sequence (P10276 1-462): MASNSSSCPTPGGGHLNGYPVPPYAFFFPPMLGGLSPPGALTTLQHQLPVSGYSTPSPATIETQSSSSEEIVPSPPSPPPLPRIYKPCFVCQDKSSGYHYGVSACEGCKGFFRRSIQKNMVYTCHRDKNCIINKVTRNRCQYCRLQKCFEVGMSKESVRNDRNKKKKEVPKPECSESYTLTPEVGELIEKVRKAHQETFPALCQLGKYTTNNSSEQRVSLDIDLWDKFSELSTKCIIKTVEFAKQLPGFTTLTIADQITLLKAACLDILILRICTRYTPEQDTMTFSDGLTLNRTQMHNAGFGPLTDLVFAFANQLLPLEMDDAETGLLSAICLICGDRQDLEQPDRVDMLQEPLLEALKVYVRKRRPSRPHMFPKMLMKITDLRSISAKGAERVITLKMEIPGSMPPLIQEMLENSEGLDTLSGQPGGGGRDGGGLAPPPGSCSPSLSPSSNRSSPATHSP

[6] = target: T3, RARβ (Homo sapiens, UniProt P10826); assay: Co-transfection assay, RARβ agonist activity; type: cell-based; conditions: CV-1 cells, 40 hours, read-out: Potency (EC50) RARβ
T3 construct: expressed in transfected cells; host or cells: CV-1 (African green monkey kidney)
T3 sequence (P10826 1-448 isoform P10826-2): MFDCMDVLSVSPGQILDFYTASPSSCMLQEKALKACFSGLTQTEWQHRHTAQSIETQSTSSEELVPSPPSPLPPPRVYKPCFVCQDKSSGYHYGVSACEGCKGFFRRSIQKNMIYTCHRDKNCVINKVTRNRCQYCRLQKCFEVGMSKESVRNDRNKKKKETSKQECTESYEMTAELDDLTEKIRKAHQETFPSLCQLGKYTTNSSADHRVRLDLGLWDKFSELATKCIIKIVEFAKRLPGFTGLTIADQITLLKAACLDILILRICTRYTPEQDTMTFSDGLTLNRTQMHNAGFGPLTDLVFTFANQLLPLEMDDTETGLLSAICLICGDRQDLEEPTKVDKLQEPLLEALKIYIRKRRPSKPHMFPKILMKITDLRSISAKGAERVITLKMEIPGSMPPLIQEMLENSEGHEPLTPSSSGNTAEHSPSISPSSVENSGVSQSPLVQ

[7] = target: T4, RXRα (Homo sapiens, UniProt P19793); assay: Co-transfection assay, RXRα agonist activity; type: cell-based; conditions: CV-1 cells, 40 hours, read-out: Potency (EC50) RXRα
T4 construct: expressed in transfected cells; host or cells: CV-1 (African green monkey kidney)
T4 sequence (P19793 1-462): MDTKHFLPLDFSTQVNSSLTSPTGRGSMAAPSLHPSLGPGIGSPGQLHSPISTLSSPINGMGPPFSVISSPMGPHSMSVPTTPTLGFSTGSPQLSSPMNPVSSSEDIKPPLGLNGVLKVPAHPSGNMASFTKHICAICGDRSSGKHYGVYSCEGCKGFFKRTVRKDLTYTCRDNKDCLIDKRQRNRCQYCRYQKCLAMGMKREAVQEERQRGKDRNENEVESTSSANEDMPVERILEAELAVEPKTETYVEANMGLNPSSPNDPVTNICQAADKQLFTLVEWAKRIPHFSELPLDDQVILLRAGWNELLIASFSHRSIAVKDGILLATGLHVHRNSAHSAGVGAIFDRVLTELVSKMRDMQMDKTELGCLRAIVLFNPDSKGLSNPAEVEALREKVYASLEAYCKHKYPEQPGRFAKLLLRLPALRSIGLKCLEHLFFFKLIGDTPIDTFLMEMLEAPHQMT

[8] = target: T5, RXRβ (Mus musculus, UniProt P28704); assay: Co-transfection assay, RXRβ agonist activity; type: cell-based; conditions: CV-1 cells, 40 hours, read-out: Potency (EC50) RXRβ
T5 construct: expressed in transfected cells; host or cells: CV-1 (African green monkey kidney)
T5 sequence (P28704 1-520): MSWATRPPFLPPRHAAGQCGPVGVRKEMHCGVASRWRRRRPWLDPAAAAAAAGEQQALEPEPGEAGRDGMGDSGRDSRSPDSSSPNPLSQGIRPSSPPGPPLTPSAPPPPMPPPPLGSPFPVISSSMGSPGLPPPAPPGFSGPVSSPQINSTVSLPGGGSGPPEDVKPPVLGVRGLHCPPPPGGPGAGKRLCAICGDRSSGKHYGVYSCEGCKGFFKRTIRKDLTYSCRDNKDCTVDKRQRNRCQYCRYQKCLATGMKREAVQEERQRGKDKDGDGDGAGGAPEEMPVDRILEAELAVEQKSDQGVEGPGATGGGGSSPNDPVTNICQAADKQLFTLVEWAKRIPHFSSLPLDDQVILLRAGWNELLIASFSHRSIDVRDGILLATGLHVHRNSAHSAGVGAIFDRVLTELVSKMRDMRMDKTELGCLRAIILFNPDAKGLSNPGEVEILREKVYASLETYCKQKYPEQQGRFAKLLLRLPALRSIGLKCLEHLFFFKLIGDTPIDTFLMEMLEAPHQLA

[9] = target: T6, RXRγ (Mus musculus, UniProt P28705); assay: Co-transfection assay, RXRγ agonist activity; type: cell-based; conditions: CV-1 cells, 40 hours, read-out: Potency (EC50) RXRγ
T6 construct: expressed in transfected cells; host or cells: CV-1 (African green monkey kidney)
T6 sequence (P28705 1-463): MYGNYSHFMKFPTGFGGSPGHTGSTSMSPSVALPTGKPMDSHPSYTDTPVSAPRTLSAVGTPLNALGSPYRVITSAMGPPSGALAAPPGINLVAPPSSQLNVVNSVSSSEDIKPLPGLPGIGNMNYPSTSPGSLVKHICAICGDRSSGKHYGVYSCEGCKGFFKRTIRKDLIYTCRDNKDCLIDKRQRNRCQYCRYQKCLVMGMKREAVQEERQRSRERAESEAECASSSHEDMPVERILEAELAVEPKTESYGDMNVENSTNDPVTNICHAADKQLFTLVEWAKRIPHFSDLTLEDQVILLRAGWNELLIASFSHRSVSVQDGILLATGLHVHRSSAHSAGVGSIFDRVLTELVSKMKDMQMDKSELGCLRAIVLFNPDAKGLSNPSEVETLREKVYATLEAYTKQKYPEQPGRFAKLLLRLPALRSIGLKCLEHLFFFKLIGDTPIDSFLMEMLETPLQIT

Structure (SMILES): CCOC(=O)/C=C(C)/C=C/C=C(\C)c1cc(C(C)(C)C)cc(C(C)(C)C)c1 [Compound 7, Ethyl (2E, 4E, 6E)-7-(3,5-di-t-butylphenyl)-3-methylocta-2,4,6-trienoate]
- retinoid activity of ester analogs (in words) [1]: exhibit retinoid activity

Structure (SMILES): CCOC(=O)/C=C(C)/C=C/C=C(/C)c1cc(C(C)(C)C)cc(C(C)(C)C)c1 [Compound 8, Ethyl (2E, 4E, 6Z)-7-(3,5-di-t-butylphenyl)-3-methylocta-2,4,6-trienoate]
- retinoid activity of ester analogs (in words) [1]: exhibit retinoid activity

Structure (SMILES): CC(/C=C/C=C(\C)c1cc(C(C)(C)C)cc(C(C)(C)C)c1)=C\C(=O)O [Compound 9, (2E, 4E, 6E)-7-(3,5-Di-t-butylphenyl)-3-methylocta-2,4,6-trienoic acid]
- activity on RARγ (in words) [2]: sub-nanomolar activity on RARγ
- RAR activity (in words) ([3]; RARs): extremely potent RAR active compounds
- binding on the retinoid receptors (in words) [4]: equal or superior binding

Structure (SMILES): C/C(=C/C=C/C(C)=C/C(=O)O)c1cc(C(C)(C)C)cc(C(C)(C)C)c1 [Compound 10, (2E, 4E, 6Z)-7-(3,5-Di-t-butylphenyl)-3-methylocta-2,4,6-trienoic acid]
- potency profile in comparison to 9-cis retinoic acid (in words) ([3]; versus 9-cis, pan-agonist): superior potency profile
- binding on the retinoid receptors (in words) [4]: equal or superior binding

Structure (SMILES): CCc1cc(C)c(\C(C)=C/C=C/C(C)=C/C(=O)O)cc1CC [Compound 54]
- EC50 [5]: > 10000 nM
- EC50 [6]: 130 nM
- EC50 ([2]; CV-1 cells, 40 hours, read-out: Potency (EC50) RARγ): 320 nM
- EC50 [7]: 58 nM
- EC50 [8]: 28 nM
- EC50 [9]: 78 nM
